pIC50: −log10 of the molar value. “And” between values parts separate entries of the source, which are not always exact repeats. Identical values can stand only once.
Tests used:
Adenosine A2A receptor [1] = target: T1, Adenosine A2A receptor (Homo sapiens, UniProt P29274); test: cAMP assay in 293A cells stably expressing the adenosine A2A receptor (CGS21680 stimulation, HTRF); type: cell-based; design: expressed in transfected cells; host or cells: 293A cells (Invitrogen, Cat# R705-07) infected with A2A-expressing lentivirus (custom packaged by Biosettia), puromycin selected; conditions: 293A-A2AR cells, 0.1% BSA
T1 sequence (P29274 whole entry): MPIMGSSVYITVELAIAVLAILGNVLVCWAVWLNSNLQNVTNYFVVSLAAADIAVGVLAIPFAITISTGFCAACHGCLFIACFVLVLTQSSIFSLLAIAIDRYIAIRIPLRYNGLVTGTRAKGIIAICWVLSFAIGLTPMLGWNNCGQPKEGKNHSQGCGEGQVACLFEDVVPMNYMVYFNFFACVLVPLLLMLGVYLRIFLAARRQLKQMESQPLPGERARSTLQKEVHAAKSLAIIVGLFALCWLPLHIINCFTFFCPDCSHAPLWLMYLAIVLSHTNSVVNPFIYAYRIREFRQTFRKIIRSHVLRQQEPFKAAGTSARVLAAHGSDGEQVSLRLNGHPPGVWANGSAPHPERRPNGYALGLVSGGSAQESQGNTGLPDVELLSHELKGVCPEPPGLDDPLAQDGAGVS

Adenosine A2A receptor [2] = target: T1, Adenosine A2A receptor; test: Adenosine A2A receptor competitive binding assay (Tag-lite HTRF); conditions: Tag-lite adenosine A2A receptor ligand binding
In short: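 Compound displacement of a red fluorescent antagonist tracer (added at 60 nM stock) from donor-labelled, pre-transfected human A2A cells was read by HTRF after 2 h at room temperature; compound dilutions contained 0.6% DMSO.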

[3] = 8 nM CGS, values separated by / are repeat determinations, read-out: cAMP (nM) 0.1% BSA, 8 nM CGS
[4] = 2 h room temperature, values separated by / are repeat determinations
[5] = 8 nM CGS, read-out: cAMP (nM) 0.1% BSA, 8 nM CGS
[6] = 1 uM CGS, read-out: cAMP (nM) 0.1% BSA, 1 uM CGS
[7] = 1 uM CGS, values separated by / are repeat determinations, read-out: cAMP (nM) 0.1% BSA, 1 uM CGS

| Structure (SMILES) | IC50 (Adenosine A2A receptor [1]; [3]) | pIC50 (Adenosine A2A receptor [2]; [4]) | IC50 (Adenosine A2A receptor [1]; [5]) | IC50 (Adenosine A2A receptor [1]; [6]) [nM] | pIC50 (Adenosine A2A receptor [2]; HTRF) | IC50 (Adenosine A2A receptor [1]; [7]) |
| --- | --- | --- | --- | --- | --- | --- |
| CCN(C(=O)COc1nc(N)nc(-c2ccc(F)cc2)c1-c1cc(C)nc(C(F)F)c1)C1COC1 [Example 118, 2-((2-amino-5-(2-(difluoromethyl)-6-methylpyridin-4-yl)-6-(4-fluorophenyl)pyrimidin-4-yl)oxy)-N-ethyl-N-(oxetan-3-yl)acetamide] | 18 nM | 7.54 |  |  |  |  |
| COC(=O)NCCOc1nc(N)nc(-c2ccccc2)c1-c1cc(C)nc(C(F)(F)F)c1 [Example 119, methyl(2-((2-amino-5-(2-methyl-6-(trifluoromethyl)pyridin-4-yl)-6-phenylpyrimidin-4-yl)oxy)ethyl)carbamate] | 5.8 nM and 5.4 nM | 7.77 |  |  |  |  |
| Cc1cc(-c2c(OCCOc3cccc(N(C)CCO)n3)nc(N)nc2-c2ccc(F)cc2)cc(C(F)F)n1 [Example 213, 2-((6-(2-((2-amino-5-(2-(difluoromethyl)-6-methylpyridin-4-yl)-6-(4-fluorophenyl)pyrimidin-4-yl)oxy)ethoxy)pyridin-2-yl)(methyl)amino)ethan-1-ol] |  |  | 3.4 nM | 7.16 | 8.03 |  |
| Cc1cc(-c2c(OCCCN3CCOCC3)nc(N)nc2-c2ccc(F)cc2)cc(C(F)F)n1 [Example 80, 5-(2-(difluoromethyl)-6-methylpyridin-4-yl)-4-(4-fluorophenyl)-6-(3-morpholinopropoxy)pyrimidin-2-amine] | 6.4 nM | 7.38 |  |  |  |  |
| Cc1cc(-c2c(OCc3ncnn3C(C)C)nc(N)nc2-c2ccc(F)cc2)cc(C(F)F)n1 [Example 179, 5-(2-(difluoromethyl)-6-methylpyridin-4-yl)-4-(4-fluorophenyl)-6-((1-isopropyl-1H-1,2,4-triazol-5-yl)methoxy)pyrimidin-2-amine] | 2.9 nM | 9.15 and 9.00 |  |  |  | 16 nM and 57 nM |
| Cc1cc(-c2c(OCC(O)CN(C)c3ccccn3)nc(N)nc2-c2ccc(F)cc2)cc(C(F)F)n1 (stereo not shown) [Example 201, 1-((2-amino-5-(2-(difluoromethyl)-6-methylpyridin-4-yl)-6-(4-fluorophenyl)pyrimidin-4-yl)oxy)-3-(methyl(pyridin-2-yl)amino)propan-2-ol] |  |  | 4.2 nM and 3.5 nM |  | 9.00 and 8.19 |  |
| Cc1cc(-c2c(OCc3cccnn3)nc(N)nc2-c2ccc(F)cc2)cc(C(F)F)n1 [Example 223, 5-(2-(difluoromethyl)-6-methylpyridin-4-yl)-4-(4-fluorophenyl)-6-(pyridazin-3-ylmethoxy)pyrimidin-2-amine] |  |  |  | 788 | 8.39 |  |
| Cc1cc(-c2c(OCc3nncn3C(C)C)nc(N)nc2-c2ccc(F)cc2)cc(C(F)F)n1 [Example 178, 5-(2-(difluoromethyl)-6-methylpyridin-4-yl)-4-(4-fluorophenyl)-6-((4-isopropyl-4H-1,2,4-triazol-3-yl)methoxy)pyrimidin-2-amine] | 1.5 nM | 8.85 and 8.49 |  |  |  |  |
| Cc1cc(-c2c(OCc3nccn3C3CCC3)nc(N)nc2-c2ccc(F)cc2)cc(C(F)F)n1 [Example 194, 4-((1-cyclobutyl-1H-imidazol-2-yl)methoxy)-5-(2-(difluoromethyl)-6-methylpyridin-4-yl)-6-(4-fluorophenyl)pyrimidin-2-amine] | 1.5 nM | 9.22 and 8.77 |  |  |  | 151 nM |
| CCN(CC)C(=O)COc1nc(N)nc(-c2ccccc2)c1-c1cc(C)nc(C(F)(F)CC)c1 [Example 17, 2-((2-amino-5-(2-(1,1-difluoropropyl)-6-methylpyridin-4-yl)-6-phenylpyrimidin-4-yl)oxy)-N,N-diethylacetamide] | 7.5 nM | 8.05 |  |  |  |  |
| CNC(=O)OCCOc1nc(N)nc(-c2ccccc2)c1-c1cc(C)nc(C(F)(F)F)c1 [Example 144, 2-((2-amino-5-(2-methyl-6-(trifluoromethyl)pyridin-4-yl)-6-phenylpyrimidin-4-yl)oxy)ethyl methylcarbamate] | 4.2 nM | 8.35 |  |  |  |  |
| Cc1cc(-c2c(O)nc(N)nc2-c2ccc(F)cc2)cc(C(F)F)n1 [Example 206, 2-amino-5-(2-(difluoromethyl)-6-methylpyridin-4-yl)-6-(4-fluorophenyl)pyrimidin-4-ol] |  |  | 10 nM | 4660 | 8.04 |  |
| Cc1cc(-c2c(OC[C@H](C)O)nc(N)nc2-c2ccc(F)cc2)cc(C(F)F)n1 [Example 77, (S)-1-((2-amino-5-(2-(difluoromethyl)-6-methylpyridin-4-yl)-6-(4-fluorophenyl)pyrimidin-4-yl)oxy)propan-2-ol] |  | 8.41 and 8.38 |  |  |  | 547 nM |
| Cc1cc(-c2c(OCc3cccc(CO[C@H]4CCOC4)n3)nc(N)nc2-c2ccc(C)o2)cc(C(F)(F)F)n1 [Example 7, (S)-5-(2-methyl-6-(trifluoromethyl)pyridin-4-yl)-4-(5-methylfuran-2-yl)-6-((6-(((tetrahydrofuran-3-yl)oxy)methyl)pyridin-2-yl)methoxy)pyrimidin-2-amine] | 380 nM | 7.24 |  |  |  |  |
| Cc1cc(-c2c(OCc3nnn(C(C)C)n3)nc(N)nc2-c2ccc(F)cc2)cc(C(F)F)n1 [Example 185, 5-(2-(difluoromethyl)-6-methylpyridin-4-yl)-4-(4-fluorophenyl)-6-((2-isopropyl-2H-tetrazol-5-yl)methoxy)pyrimidin-2-amine] |  | 8.15 |  |  |  | 6 nM and 25 nM |
| Cc1cc(-c2c(OCc3ncc(C#N)n3C(C)C)nc(N)nc2-c2ccc(F)cc2)cc(C(F)F)n1 [Example 191, 2-(((2-amino-5-(2-(difluoromethyl)-6-methylpyridin-4-yl)-6-(4-fluorophenyl)pyrimidin-4-yl)oxy)methyl)-1-isopropyl-1H-imidazole-5-carbonitrile] | 12 nM | 7.41 |  |  |  |  |
| Cc1cc(-c2c(OCCc3ccccc3)nc(N)nc2-c2ccccc2)cc(C(F)(F)F)n1 [Example 8, 5-(2-methyl-6-(trifluoromethyl)pyridin-4-yl)-4-phenethoxy-6-phenylpyrimidin-2-amine] | 7.4 nM and 7.7 nM | 7.99 and 7.74 |  |  |  |  |
| Cc1cc(-c2c(OCC(=O)NCC3CCOCC3)nc(N)nc2-c2ccc(F)cc2)cc(C(F)F)n1 [Example 160, 2-((2-amino-5-(2-(difluoromethyl)-6-methylpyridin-4-yl)-6-(4-fluorophenyl)pyrimidin-4-yl)oxy)-N-((tetrahydro-2H-pyran-4-yl)methyl)acetamide] | 184 nM | 6.47 |  |  |  |  |
| CCNC(=O)COc1nc(N)nc(-c2ccc(F)cc2)c1-c1cc(C)nc(C(F)F)c1 [Example 39, 2-((2-amino-5-(2-(difluoromethyl)-6-methylpyridin-4-yl)-6-(4-fluorophenyl)pyrimidin-4-yl)oxy)-N-ethylacetamide] | 0.42 nM and 0.57 nM and 2.2 nM | 8.14 and 8.19 |  |  |  |  |
| CNC(=O)NCCOc1nc(N)nc(-c2ccccc2)c1-c1cc(C)nc(C(F)(F)F)c1 [Example 120, 1-(2-((2-amino-5-(2-methyl-6-(trifluoromethyl)pyridin-4-yl)-6-phenylpyrimidin-4-yl)oxy)ethyl)-3-methylurea] | 13 nM and 8.2 nM | 8.06 |  |  |  |  |
| Cc1cc(-c2c(OCCc3ccc(C(C)(C)O)cc3)nc(N)nc2-c2ccc(F)cc2)cc(C(F)F)n1 [Example 68, 2-(4-(2-((2-amino-5-(2-(difluoromethyl)-6-methylpyridin-4-yl)-6-(4-fluorophenyl)pyrimidin-4-yl)oxy)ethyl)phenyl)propan-2-ol] | 2.7 nM | 7.66 |  |  |  |  |

— patent US20210355104A1, “ADENOSINE RECEPTOR BINDING COMPOUNDS” (Nikang Therapeuticsm Inc., priority 2018, published 2021)
